Laboratory results as given in US20240043444A1, “METHODS FOR TREATING SPINOCEREBELLAR ATAXIA TYPE 3” (PTC Therapeutics, Inc., priority 2021, published 2024).

Tests used:
[1] = system: ATXN3 Pre-mRNA (exon 4 skipping); experiment: RT-qPCR Assay to Quantify Exon 4 Skipping in ATXN3 Pre-mRNA in Cells; assay type: cell-based; settings: cells incubated with compound 24 h, normalised to GAPDH, 7-point concentration curve
Protocol: (§1) Test compounds were serially diluted 3.16-fold in 100% DMSO to generate a 7-point concentration curve. Aliquots of 0.5 μL of diluted compounds were transferred to a 96-well flat bottom plate by a liquid handler. An aliquot of 0.5 μL DMSO was also transferred to separate wells and used as controls. Duplicate samples were set up for each compound concentration and for the DMSO control.
Cells were thawed and incubated in cell culture media (DMEM, 10% FBS, and 1% antibiotic cocktail) for 72 h. Cells were trypsinized, counted, and re-suspended to a concentration of 100,000 cells/mL in cell culture media. A 100 μL aliquot of the cell suspensions were plated at 10,000 cells per well in the compound containing 96 well microtiter plate and incubated for in a cell culture incubator (37° C., 5% CO2, 100% relative humidity).
After 24 h, media was aspirated from the cells and 50 μL of the RCL2 lysis buffer (10 mM Tris-HCL pH 7.4, 150 mM NaCl, 0.33% IGEPAL® CA-630) was added to each well and incubated at room temperature for 1 min. Chilled nuclease free water (50 μL per well) was added and the plates were immediately transferred on ice. After 1 min on ice, plates were frozen at −80° C. overnight.
Preparation of RT-qPCR Reaction Mixture:
An aliquot of 2 μL/well of the cell lysates was transferred using the liquid handler to the Armadillo 384-Well PCR plate containing 8 μL/well of the RT-qPCR reaction mixture that was prepared as detailed above. The plates were then sealed with MicroAmp™ Optical Adhesive Film followed by spinning down for 1 min and placed in the CFX384 thermocycler (BioRad).
The RT-qPCR was carried out at the following temperatures for the indicated time: • Step 1: 48° C. (30 min) • Step 2: 95° C. (10 min) • Step 3: 95° C. (15 sec) • Step 4: 60° C. (1 min); then, repeated Steps 3 and 4 for a total of 40 cycles.
The percent exon 4 skipping was calculated for each dose of compound treatment using Equations 1 and 2.
Data were fit to a dose response curve and the IC50 was interpolated using XLfit® statistical and curve fitting package.
An IC50 value between >2.0 μM and ≤3.0 μM is indicated by one star (*). […] IC50 value between >0.5 μM and ≤1.0 μM is indicated by four stars (****). An IC50 value ≤0.5 μM is indicated by five stars (*****).

[2] = system: Endogenous Total ATXN3 (tATXN3) Protein; experiment: Endogenous Total ATXN3 (tATXN3) Protein Assay (MSD immunoassay of cell lysates); assay type: cell-based; settings: cells incubated with compound 48 h; 7-point concentration curve; MSD plate readout
Protocol: Meso Scale Discovery (MSD) 96-well or 384-well plates were coated overnight at 4° C. with Ataxin 3 mouse monoclonal antibody (Invitrogen, MA3-082) at a concentration of […] in PBS (30 μL per well). Plates were then washed three times with 300 μL wash buffer (0.05% TWEEN®-20, polyethylene glycol sorbitan monolaurate, in PBS) and blocked (Meso Scale Diagnostics, R93BA-1; 5% BSA in PBS) for 2 h at room temperature with rotational shaking and then washed three times with wash buffer.
as §1
Cells were thawed and incubated in cell culture media (DMEM, 10% FBS, and 1% antibiotic cocktail) for 72 h. Cells were trypsinized, counted, and re-suspended to a concentration of 100,000 cells/mL in cell culture media. A 100 μL aliquot of the cell suspensions were plated at 10,000 cells per well in the compound containing 96 well microtiter plate and incubated for in a cell culture incubator (37° C., 5% CO2, 100% relative humidity). After 48 h, the medium was removed and 50-100 μL of lysis buffer (Meso Scale Diagnostics, R60TX-2) containing 1× halt protease inhibitor cocktail of (Thermo Scientific, Halt™ Protease Inhibitor Cocktail, 78430) per well was added to cells to provide a “cell lysate”. The plate was placed on a shaker at 4° C. for 30 minutes, then stored at −80° C.
Cell lysate samples (25 μL) were transferred to the antibody-coated MSD plate and incubated overnight at 4° C. After removal of the lysates, the plate was washed three times with wash buffer, and 25 μL of Ataxin 3 recombinant rabbit monoclonal antibody (Invitrogen, #702788) secondary antibody (diluted to 0.25 μg/mL in 0.05% TWEEN®-20 in blocking buffer) was added to each well and incubated with shaking for 1-2 h at room temperature. Following incubation with the secondary antibody, the wells were rinsed with wash buffer and then 25 μL of Anti Rabbit Antibody Goat SULFO-TAG Labeled (Meso Scale Diagnostics, R32AB-1) detecting antibody (diluted to 0.25 μg/mL in 0.05% TWEEN®-20 in blocking buffer) was added to each well and incubated with shaking for 1 h at room temperature. After rinsing three times with wash buffer, 150 μL of Read Buffer T with surfactant (tris-based buffer containing tripropylamine, Meso Scale Diagnostics, R92TC-1) were added to each empty well, and the plate was imaged on a SI 6000 imager (MSD) according to manufacturers' instructions provided for 96- or 384-well plates.

IC50 (average, total ATXN3 protein) [2] | Structure (SMILES) | IC50 [1] [nM] | IC50 [2] [nM] | IC50 (exon 4 skipping in ATXN3 pre-mRNA) [1]
– | CC[C@H](N)Cc1sc2c(NCc3ccns3)nc(Cl)nc2c1C [Cpd 62, 6-[(2S)-2-aminobutyl]-2-chloro-7-methyl-N-[(1,2-thiazol-5-yl)methyl]thieno[3,2-d]pyrimidin-4-amine] | ≤ 500 | ≤ 500 | –
– | Cc1c(C[C@H](C)N)sc2c(NCc3c(F)cncc3F)nc(Cl)nc12 [Cpd 64, 6-[(2S)-2-aminopropyl]-2-chloro-N-[(3,5-difluoropyridin-4-yl)methyl]-7-methylthieno[3,2-d]pyrimidin-4-amine] | 500 to 1000 | 1000 to 1500 | –
inactive | Cc1c(C[C@H](C)CO)sc2c(NCc3ccco3)nc(Cl)nc12 [Cpd 66, (2S)-3-(2-chloro-4-{[(furan-2-yl)methyl]amino}-7-methylthieno[3,2-d]pyrimidin-6-yl)-2-methylpropan-1-ol] | – | – | inactive
inactive | Cc1c(CCCN)sc2c(NCc3ccco3)nc(Cl)nc12 [Cpd 67, 6-(3-aminopropyl)-2-chloro-N-[(furan-2-yl)methyl]-7-methylthieno[3,2-d]pyrimidin-4-amine] | – | – | inactive
– | C[C@H](N)Cc1sc2c(NCc3ccncc3F)nc(Cl)nc2c1Br [Cpd 68, 6-[(2S)-2-aminopropyl]-7-bromo-2-chloro-N-[(3-fluoropyridin-4-yl)methyl]thieno[3,2-d]pyrimidin-4-amine] | ≤ 500 | ≤ 500 | –
– | Cc1c(C[C@H](C)CN)sc2c(NCc3ccco3)nc(Cl)nc12 [Cpd 70, 6-[(2S)-3-amino-2-methylpropyl]-2-chloro-N-[(furan-2-yl)methyl]-7-methylthieno[3,2-d]pyrimidin-4-amine] | 500 to 1000 | 1000 to 1500 | –
– | Cc1c(C[C@@H](C)CN)sc2c(NCc3ccco3)nc(Cl)nc12 [Cpd 72, 6-[(2R)-3-amino-2-methylpropyl]-2-chloro-N-[(furan-2-yl)methyl]-7-methylthieno[3,2-d]pyrimidin-4-amine] | 1500 to 2000 | > 2000 | –
– | Cc1c(C[C@H](C)N)sc2c(NCc3cncs3)nc(Cl)nc12 [Cpd 74, 6-[(2S)-2-aminopropyl]-2-chloro-7-methyl-N-[(1,3-thiazol-5-yl)methyl]thieno[3,2-d]pyrimidin-4-amine] | 1000 to 1500 | 1500 to 2000 | –
– | Cc1c(C[C@H](C)N)sc2c(NCc3cnco3)nc(Cl)nc12 [Cpd 75, 6-[(2S)-2-aminopropyl]-2-chloro-7-methyl-N-[(1,3-oxazol-5-yl)methyl]thieno[3,2-d]pyrimidin-4-amine] | 500 to 1000 | 1000 to 1500 | –
– | CCc1c(C[C@H](C)N)sc2c(NCc3ccco3)nc(Cl)nc12 [Cpd 77, 6-[(2S)-2-aminopropyl]-2-chloro-7-ethyl-N-[(furan-2-yl)methyl]thieno[3,2-d]pyrimidin-4-amine] | ≤ 500 | ≤ 500 | –
– | Cc1c(C[C@H](C)NC2CCC2)sc2c(NCc3ccco3)nc(Cl)nc12 [Cpd 78, 2-chloro-6-[(2S)-2-(cyclobutylamino)propyl]-N-[(furan-2-yl)methyl]-7-methylthieno[3,2-d]pyrimidin-4-amine] | 1000 to 1500 | 1500 to 2000 | –
inactive | Clc1nc(NCc2cccs2)c2scc(Br)c2n1 [Cpd 80, 7-bromo-2-chloro-N-[(thiophen-2-yl)methyl]thieno[3,2-d]pyrimidin-4-amine] | – | – | inactive
– | C[C@H](N)Cc1sc2c(NCc3cccs3)nc(Cl)nc2c1Br [Cpd 82, 6-[(2S)-2-aminopropyl]-7-bromo-2-chloro-N-[(thiophen-2-yl)methyl]thieno[3,2-d]pyrimidin-4-amine] | ≤ 500 | ≤ 500 | –
– | C[C@H](N)Cc1sc2c(NCc3cccs3)nc(Cl)nc2c1C1CC1 [Cpd 86, 6-[(2S)-2-aminopropyl]-2-chloro-7-cyclopropyl-N-[(thiophen-2-yl)methyl]thieno[3,2-d]pyrimidin-4-amine] | ≤ 500 | ≤ 500 | –
– | Cc1c(C[C@H](C)N)sc2c(NCc3sccc3F)nc(Cl)nc12 [Cpd 90, 6-[(2S)-2-aminopropyl]-2-chloro-N-[(3-fluorothiophen-2-yl)methyl]-7-methylthieno[3,2-d]pyrimidin-4-amine] | ≤ 500 | ≤ 500 | –
– | Cc1c(C[C@H](C)N)sc2c(NCc3nc(F)cs3)nc(Cl)nc12 [Cpd 92, 6-[(2S)-2-aminopropyl]-2-chloro-N-[(4-fluoro-1,3-thiazol-2-yl)methyl]-7-methylthieno[3,2-d]pyrimidin-4-amine] | ≤ 500 | ≤ 500 | –
– | Cc1c(C[C@H](C)N)sc2c(NCc3ncc(F)s3)nc(Cl)nc12 [Cpd 93, 6-[(2S)-2-aminopropyl]-2-chloro-N-[(5-fluoro-1,3-thiazol-2-yl)methyl]-7-methylthieno[3,2-d]pyrimidin-4-amine] | ≤ 500 | ≤ 500 | –
inactive | Cc1c([C@@H](C)N)sc2c(NCc3ccco3)nc(Cl)nc12 [Cpd 94, 6-[(1R)-1-aminoethyl]-2-chloro-N-[(furan-2-yl)methyl]-7-methylthieno[3,2-d]pyrimidin-4-amine] | – | – | inactive
– | Cc1c(C[C@@H](N)CCO)sc2c(NCc3ccco3)nc(Cl)nc12 [Cpd 97, (3S)-3-amino-4-(2-chloro-4-{[(furan-2-yl)methyl]amino}-7-methylthieno[3,2-d]pyrimidin-6-yl)butan-1-ol] | ≤ 500 | ≤ 500 | –

Structure (SMILES) | IC50 (average, total ATXN3 protein) [2] | IC50 [1] [nM] | IC50 [2] [nM] | IC50 (exon 4 skipping in ATXN3 pre-mRNA) [1]
Cc1c(C[C@H](C)N)sc2c(NCc3ncc[nH]3)nc(Cl)nc12 [Cpd 73, 6-[(2S)-2-aminopropyl]-2-chloro-N-[(1H-imidazol-2-yl)methyl]-7-methylthieno[3,2-d]pyrimidin-4-amine] | inactive | – | – | inactive
Cc1c(C[C@H](C)N)sc2c(NCc3ccnn3C)nc(Cl)nc12 [Cpd 81, 6-[(2S)-2-aminopropyl]-2-chloro-7-methyl-N-[(1-methyl-1H-pyrazol-5-yl)methyl]thieno[3,2-d]pyrimidin-4-amine] | inactive | – | – | inactive
C[C@H](N)Cc1sc2c(NCc3cccs3)nc(Cl)nc2c1-c1ccc(Cl)cc1 [Cpd 88, 6-[(2S)-2-aminopropyl]-2-chloro-7-(4-chlorophenyl)-N-[(thiophen-2-yl)methyl]thieno[3,2-d]pyrimidin-4-amine] | inactive | – | – | inactive
